Data reported in patent publication US6821735B1, “Protein involved in abscisic acid signalling” (Plant BioScience Limited, priority 1997, dated 2004).
“Also recorded” adds a separate entry of the source. Like-named read-outs stand apart in the source and are kept apart here.

Experiments:
[1] = tested on: Xenopus Ca^2+-dependent Cl^− channels; assay: ABA response of Xenopus oocytes injected with N. tabacum poly(A)+ RNA, two-electrode voltage clamp; type: cell-based, Xenopus laevis
[2] = tested on: anion current of guard cells; type: cell-based, N. benthamiana
[3] = tested on: inward-rectifying K^+ currents of guard cells; type: cell-based, V. faba; conditions: after 300 s
[4] = tested on: inward-rectifying K^+ channels of guard cells; conditions: stated as normal; cited from earlier work
[5] = tested on: inward-rectifying K^+ channels of guard cells; type: cell-based, N. benthamiana
[6] = tested on: outward-rectifying K^+ channels of guard cells; assay: Guard cell voltage clamp: ABA response of the outward-rectifying K^+ current (IK,out); type: cell-based, Nicotiana
SYR transcript = assay: Northern analysis of SYR expression in leaves of treated plants
[7] = cited from earlier work
[8] = tested on: oocyte endogenous voltage-dependent K^+ channels; assay: Voltage clamp of oocytes expressing SYR: current characterization and channel inhibitors; type: cell-based, Xenopus laevis; design: highest maximum value of outward-rectifying current: unit not given here; conditions: for reduction of the current in SYR expressing oocytes: toxin in Ringer at Table 3 concentration (TEA 30 mM, niflumic acid 1 mM)
[9] = tested on: current endogenous to the oocytes; assay: Uninjected oocytes in 25 mM K^+: effect of channel inhibitors; conditions: 25 mM K^+ in the bath
[10] = Rabbit antisera raised against SYR peptides, tested by Western blot; type: in vivo; conditions: bleeds after injection
Method: Both, the purchased (SP1) and the purified (SP2) peptides were injected, each into two rabbits at the UKC animal facilities (University of Kent, Canterbury). Blood sera were taken after four weeks and the rabbits were injected a second time, After a second bleed two to three weeks later, the rabbits were injected a third time and killed while collecting blood from the heart two weeks later. SDS—PAGE and Western Blotting
Prior to hybridization with an antibody, the membrane was blocked with 1×TBS (0.15 M NaCl, 3 mM KCl, 25 mM Tris pH 7.4) and 5% Marvel (milk powder) for 1 h. Antibody hybridization occurred in the same buffer (1×TBS, 5% Marvel) plus 0.1% Tween and 0.1% azide overnight with a rabbit generated antibody with an estimated concentration of 1 ng/μl. The antibody solution was then poured off and stored in the fridge until needed again. The membrane was washed three times with 1×TBS and 0.1% Tween solution. […]

H440 yeast strain = assay: Complementation of yeast strain H440 (SSO1 and SSO2 deleted) on galactose deficient medium; conditions: H440(SYR) on galactose deficient medium

CC1=CC(=O)CC(C)(C)[C@@]1(O)/C=C/C(C)=C\C(=O)O [ABA, abscisic acid]
time for complete decay of the ABA-stimulated current ([1]; 20 μM ABA, mRNA injected oocyte): ≤ 5 min
response to a second ABA application ([1]; 2 of the 3 ABA responsive cells): In neither case, a second response was detected
increase of steady-state current evoked by ABA ([1]; at +60 mV, mRNA injected oocyte): > 3 μA
number of cells showing the ABA response ([1]; of a total of 5 mRNA injected cells tested): 3 cells
maximum amplitude of outward-rectifying Cl^− current in response to ABA ([1]; oocytes injected with N. tabacum poly(A)+ RNA): 3.1 μA
response of water injected oocytes ([1]; water injected oocytes, n=8): did not respond
effect of ABA on instantaneous anion current of a control cell [2]: four-fold increase
stimulation of the Cl^− current amplitude [2]: 3 fold
ABA induced increase of instantaneous anion current, mean, normalized to before ABA ([2]; n=3): 3.5 fold
inhibition of IK,in by ABA [3]: ~80%
inactivation of the inward-rectifying K+ channel current normally caused by ABA [4]: 40-60%
inhibition of inward K^+ current in response to ABA [5]: about 40%
inward-rectifier current in ABA [5]: 24 % of the control
mean IK.in ABA normalized for IK.in before ABA ([5]; n=5): 46 % of the original current
stimulation of the outward-rectifier current ([6]; 20 M ABA, 10 mM K+ outside): ~2 fold
SYR transcript level in leaves (SYR transcript; plants treated by spraying, ABA 20 μM, IAA 30 min): increased; also recorded: transient induction
time of highest amount of SYR transcript after beginning of treatment (SYR transcript; second experiment, total RNA): 30 min
pKa [7]: 4.8

[Ba+2] [Ba^2+]
effect on the current in SYR expressing oocytes, in words [8]: conversion of the instantaneous component into the time-dependent component
reversibility of the toxin effect [8]: Full recovery
effect on the current of uninjected oocytes, in words [9]: a time-dependent one arose

CC[N+](CC)(CC)CC [TEA, tetraethyl ammonium]
reversibility of the toxin effect ([8]; after wash-out): reversible
reduction of the current in SYR expressing oocytes [8]: 50%
effect on the current of uninjected oocytes, in words [9]: invisible

O=C(O)c1cccnc1Nc1cccc(C(F)(F)F)c1 [niflumic acid]
reversibility of the toxin effect ([8]; after wash-out): fully recovered
reduction of the current in SYR expressing oocytes [8]: ~100%
effect on the current of uninjected oocytes, in words [9]: abolished

CC(=O)[O-].[K+] [potassium acetate]
induction of outward Cl^− currents by weak acid control ([1]; 20 μM substituted for ABA, mRNA injected oocytes): no response was observed

ω-conotoxin
effect on the current in SYR expressing oocytes, in words [8]: no effect was detected

B1: Sp2: truncated Nt-Syr protein, amino acids 1-279 of SEQ ID NO:2, N-His-tagged (protein, listed as Nicotiana tabacum)
chain: MNDLFSGSFSRFRADDQSDSHAIEMGDITGGVNLDKFFEDVEAIKDELKGLEKIYSQLQSSHEKSKTLHNAKAVKDLRSNMDNDVSMALKKAKFIKVRLEALDRSNAANRSLPGCGPGSSSDRTRTSVVNGLRKKLQESMNQFNELRQKMASEYRETVQRRYYTVTGENPDEAVLDTLISTGQSETFLQKAIQEQGRGQVMDTVMEIQERHEAVKELERNLKELHQVFLDMAVLVESQGAQLDDIESQVNRANSFVRGGAQQLQVARKHQKNTRKWTCF
modifications: N-terminal His tag
ABA sensitivity of inward-rectifying K+ current after Sp2 loading [5]: complete loss of sensitivity to ABA
ABA sensitivity of outward-rectifying K+ current after Sp2 loading ([6]; microelectrodes containing 20 or 100 µM Sp2, 20 µM ABA): complete loss of sensitivity to ABA
recognition of the peptide by rabbit blood sera [10]: did cross-react with the peptide

B2: SYR: syntaxin-related protein of N. tabacum, 300 amino acids, SEQ ID NO:2 (protein, listed as Nicotiana tabacum)
chain: MNDLFSGSFSRFRADDQSDSHAIEMGDITGGVNLDKFFEDVEAIKDELKGLEKIYSQLQSSHEKSKTLHNAKAVKDLRSNMDNDVSMALKKAKFIKVRLEALDRSNAANRSLPGCGPGSSSDRTRTSVVNGLRKKLQESMNQFNELRQKMASEYRETVQRRYYTVTGENPDEAVLDTLISTGQSETFLQKAIQEQGRGQVMDTVMEIQERHEAVKELERNLKELHQVFLDMAVLVESQGAQLDDIESQVNRANSFVRGGAQQLQVARKHQKNTRKWTCFAIILLLIIILVVVLSIQPWKK
suppression of the SSO1/SSO2 mutation (H440 yeast strain): could not suppress this mutation
half time of increase in outward-rectifying current after impalement ([8]; 50 ng cRNA injected, +60 mV): 20 min
highest maximum value of outward-rectifying current ([8]; 50 ng cRNA injected, +60 mV): 3
reversal potential of the outward-rectifying current ([8]; [K^+]o 25 mM): around −35 mV
